Here are results for one molecule from US8815865B2, “Substituted 4-hydroxypyrimidine-5-carboxamides” (Merck Sharp & Dohme Corp., priority 2009, dated 2014).

For one data set, the target named is T1, PHD2 (Homo sapiens, UniProt Q9GZT9).
T1 construct: FLAG-tagged full length PHD2 expressed in and purified from baculovirus-infected Sf9 cells; FLAG; made in house; host or cells: baculovirus-infected Sf9 cells
Briefly: PHD2 / HIF-1α peptide time resolved fluorescence inhibition assay. The data set is classed as biochemical. The procedure: To each well of a 96-well plate was added 1 μL of test compound in DMSO and 20 μl of assay buffer (50 mM Tris pH 7.4/0.01% Tween-20/0.1 mg/ml bovine serum albumin/10 μM ferrous sulfate/1 mM sodium ascorbate/20 μg/ml catalase) containing 0.15 μg/ml FLAG-tagged full length PHD2 expressed in and purified from baculovirus-infected Sf9 cells. After a 30 min preincubation at room temperature, the enzymatic reactions were initiated by the addition of 4 μL of substrates (final concentrations of 0.2 μM 2-oxoglutarate and 0.5 μM HIF-1α peptide biotinyl-DLDLEMLAPYIPMDDDFQL). After 2 hr at room temperature, the reactions were terminated and signals were developed by the addition of a 25 μL quench/detection mix to a final concentration of 1 mM ortho-phenanthroline, 0.1 mM EDTA, 0.5 nM anti-(His)6 LANCE reagent (Perkin-Elmer Life Sciences), 100 nM AF647-labeled streptavidin (Invitrogen), and 2 μg/ml (His)6-VHL complex (S. Tan (2001) Protein Expr. Purif. 21, 224-234). The ratio of time resolved fluorescence signals at 665 and 620 nm was determined, and percent inhibition was calculated relative to an uninhibited control sample run in parallel.

Data set [1] can be described thus: Pharmacokinetics after intravenous dosing in dogs (plasma concentrations by LC-MS/MS). The data set is classed as in vivo, dogs (beagles). The conditions noted are these: dog (beagle), 0.5 mg/kg intravenously. On the procedure:
The pharmacokinetics of Example 1 (E-1) was evaluated, and compared to that of Example 163 and Example 190 both disclosed in International PCT Application, No. PCT/US09/036,501, filed Mar. 9, 2009. Compounds were formulated in a 1:1 solution (by volume) of PEG200: water and dosed at 0.5 mg/kg of body weight. The formulation was dosed intravenously in 2 dogs (beagles), and blood was drawn at the following time points (hours) 0.08, 0.25, 0.5, 1, 2, 4, 6, 8, 24. The plasma concentrations shown in the table below were determined by protein precipitation followed by liquid chromatography—tandem mass spectrometry analysis.

Where only a bound is given, the exact number is not on record here.

T1 sequence (Q9GZT9 whole entry): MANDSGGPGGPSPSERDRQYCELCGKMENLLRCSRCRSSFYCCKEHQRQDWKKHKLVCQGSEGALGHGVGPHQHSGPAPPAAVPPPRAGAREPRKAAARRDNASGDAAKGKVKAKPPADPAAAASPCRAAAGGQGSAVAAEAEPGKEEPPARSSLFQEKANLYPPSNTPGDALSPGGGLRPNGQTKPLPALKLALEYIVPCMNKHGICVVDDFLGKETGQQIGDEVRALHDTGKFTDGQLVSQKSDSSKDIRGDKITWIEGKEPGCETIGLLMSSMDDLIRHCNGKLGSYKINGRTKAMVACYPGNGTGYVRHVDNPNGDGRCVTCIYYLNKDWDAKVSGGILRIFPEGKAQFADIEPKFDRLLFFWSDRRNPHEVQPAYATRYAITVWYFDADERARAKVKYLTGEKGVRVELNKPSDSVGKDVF

In the case of `COc1ccc(C(NC(=O)c2cnc(-c3cccnn3)nc2O)C2CCOCC2)cn1` (single isomer, unassigned) [Example 1, (R)- or (S)-4-Hydroxy-N-[(6-methoxypyridin-3-yl)(tetrahydro-2H-pyran-4-yl)methyl]-2-pyridazin-3-ylpyrimidine-5-carboxamide], the “IC50, inhibition of the interaction between PHD2 and a HIF peptide” value against PHD2 (range printed in mixed units (nanomolar to micromolar)) is 0.1 to 10000 nM. Also, the IC50 on PHD2 (read-out: PHD2 binding activity expressed as IC50) was ≤ 10 nM. Moreover, in data set [1], the MRT came to 7.93 h and the clearance worked out at 1.35 mL/min/kg. Also, in data set [1] (PEG200:water 1:1, time 0.08 hours), the concentration at 0.08 h was 2230 nM. Further, the half-life in data set [1] (read-out: T ½ (converted)) was 6.07 h. For the same molecule, in data set [1] (time 0.25 hours), the concentration at 0.25 h is 2060 nM. The concentration at 0.5 h in data set [1] (time 0.50 hours) was 1960 nM. The molecule also displayed a concentration at 1 h in data set [1] (time 1.00 hours) of 1660 nM. Besides, in data set [1] (time 2.00 hours), the concentration at 2 h is 1390 nM. In data set [1] (time 4.00 hours), this molecule had a concentration at 4 h of 1320 nM. The concentration at 6 h in data set [1] (time 6.00 hours) was 917 nM. Moreover, in data set [1] (time 8.00 hours), the concentration at 8 h was 504 nM. Moreover, the concentration at 24 h in data set [1] (time 24.00 hours) was 100 nM.
